According to publication PMC8132342, “Antimalarial properties and molecular docking analysis of compounds from Dioscorea bulbifera L. as new antimalarial agent candidates” (BMC Complementary Medicine and Therapies, 2021):
Where two headings read alike, the source gives them in different places.

Experiments:
[1] = system: chloroquine (CQ)-resistant P. falciparum (K1 strain); assay: Antimalarial activity, 3H-hypoxanthine uptake inhibition, K1 strain; format: cell-based, Plasmodium falciparum
Description: (§1) The culture of P. falciparum malaria parasites was continuously performed using standard methods with some modifications. RPMI-1640 medium was supplemented with noninfected type O-positive red blood cells (2% hematocrit), 2 mg/ml sodium bicarbonate, 10 μg/ml hypoxanthine (Sigma-Aldrich, New Delhi, India), 4.8 mg/ml HEPES (Himedia, Mumbai, India), 10% human AB serum and 2.5 μg/ml gentamicin (Sigma-Aldrich, New Delhi, India).
(§2) Antimalarial activity of extracts and compounds from D. bulbifera against P. falciparum K1 and 3D7 strains were assessed by measuring ^3H-hypoxanthine incorporated in parasite nucleic acids using the modified technique of Desjadins et al.. The red cell suspension at 1–2% hematocrit containing 1% ring stage P. falciparum-infected red blood cells was incubated with various concentrations of extracts (2.50–80 μg/ml) and pure compounds (2.5–80 μM) in 96-well culture plates. Parasites were incubated at 37 °C for 24 h, then ^3H-hypoxanthine (25 μl of 0.025 μCi/μl) was added to each well, and the plates were maintained under conditions of 93% N2, 3% O2 and 4% CO2 at 37 °C for an additional 24 h. The samples were transferred to a glass fiber filter (Wallac, Turku, Finland). ^3H-Hypoxanthine uptake was then assessed using a MicroBeta TriLux Liquid Scintillation Counter (PerkinElmer, USA). Each assay condition was performed in triplicate independently. The concentration of samples that inhibited the uptake of ^3H-hypoxanthine by 50% (IC50) assessed by log dose response curve using WinNonlin software version 4.1 (Pharsight Corporation, CA) was used as a marker of antimalarial effect potency.

[2] = system: CQ-sensitive P. falciparum (3D7 strain); assay: Antimalarial activity, 3H-hypoxanthine uptake inhibition, 3D7 strain; format: cell-based; settings: Plasmodium falciparum
Description: as §1, §2

[3] = In vitro cytotoxicity, MTT assay; format: cell-based; settings: African green monkey
Description: The toxicity of D. bulbifera extracts and isolated compounds was assessed by 3-(4,5-dimethythiazol-2-yl)-2,5-diphenyl tetrazolium bromide (MTT) assay according to a previous method. Briefly, Vero cells (Elabscience, Wuhan, Hubei, China) were seeded into 96-well plates at a density of 10^4 cell/ml and incubated for 24 h at 37 °C with 5% CO2. Cells were then treated with various concentrations of extracts and compounds for 48 h at 37 °C with 5% CO2. Doxorubicin (Sigma-Aldrich, New Delhi, India) was used as a toxic control. Subsequently, MTT solution was added to each well, and the plate was incubated for 2 h in a CO2 incubator. The medium was then removed, and 100 μl of DMSO was added to each well. Finally, the optical density was determined at a wavelength of 590 nm using a microplate reader. The assay was performed in duplicate.

[4] = Plasmodium falciparum, K1, pure compounds, P. falciparum K1 strain, mean ± S.D. of three determinations, read-out: IC50 K1
[5] = pure compounds, P. falciparum 3D7 strain, mean ± S.D. of three determinations, read-out: IC50 3D7
[6] = Vero cells, MTT, 48 h, read-out: CC50

SMILES: C[C@H]1[C@H](OC(=O)CCC(=O)O)O[C@@H]2O[C@@]3(C)CC[C@H]4[C@H](C)CC[C@@H]1[C@@]24OO3 [Artesunate, artesunate, reference compound]
- IC50 ([1]; Plasmodium falciparum, K1, positive controls (footnote d), P. falciparum K1 strain, read-out: IC50 K1): 0.00053 ± 4e-05 µM
- IC50 ([2]; positive controls (footnote d), P. falciparum 3D7 strain, read-out: IC50 3D7): 0.00181 ± 0.00019 µM

SMILES: CCN(CC)CCCC(C)Nc1ccnc2cc(Cl)ccc12 (stereo not drawn) [Chloroquine, chloroquine, reference compound]
- IC50 ([1]; Plasmodium falciparum, K1, read-out: IC50 K1): 0.103 ± 0.0045 µM
- IC50 ([2]; 3D7, read-out: IC50 3D7): 0.00991 ± 0.00056 µM

SMILES: CC(=O)OC1CC2C(=O)OC(c3ccoc3)CC2(C)C2CC3CC(C(=O)O3)C12 (stereo not drawn) [Compound 1, 8-epidiosbulbin E acetate]
- IC50 [1, 4]: > 80 µM
- IC50 [2, 5]: > 80 µM
- CC50 at 48 h [3, 6]: > 80 µM

SMILES: CC(=O)OC1CC2(O)C(=O)OC(c3ccoc3)CC2(C)C2CC3CC(C(=O)O3)C12 (stereo not drawn) [Compound 2, 15,16-epoxy-6α-O-acetyl-8β-hydroxy-19-nor-clero-13(16),14-diene-17,12;18,2-diolide]
- IC50 [1, 4]: > 80 µM
- IC50 [2, 5]: > 80 µM
- CC50 at 48 h [3, 6]: > 80 µM

SMILES: CCC(C(C)C)C(C)CC(C)C1CCC2C3C=CC4CC(OC5OC(CO)C(O)C(O)C5O)CCC4(C)C3CCC12C (stereo not drawn) [Compound 3]
- IC50 [1, 4]: > 80 µM
- IC50 [2, 5]: > 80 µM
- CC50 at 48 h [3]: > 80 µM

SMILES: COc1c(-c2ccc(O)c(O)c2)oc2cc(O)cc(OC)c2c1=O [Compound 4, 3,5-dimethoxy quercetin]
- IC50 [1, 4]: 44 ± 1.47 µM
- IC50 [2, 5]: 70.8 ± 2.32 µM
- CC50 at 48 h [3, 6]: > 80 µM

SMILES: Oc1cc(O)c2c(c1)O[C@H](c1ccc(O)c(O)c1)[C@@H](O)C2 [Compound 5, (+)-catechin]
- IC50 [1, 4]: > 80 µM
- IC50 [2, 5]: > 80 µM
- CC50 at 48 h [3, 6]: > 80 µM

SMILES: O=c1c(O)c(-c2ccc(O)c(O)c2)oc2cc(O)cc(O)c12 [Compound 6, quercetin]
- fold higher activity than 3,5-dimethoxyquercetin (4) ([1]; K1 strain): approximately 1.5 fold
- fold higher activity than quercetin-3-O-β-D-galactopyranoside (14) ([1]; K1 strain): ~2 fold
- IC50 [1, 4]: 28.5 ± 0.9 µM
- inhibition at 80 µM ([1]; Plasmodium falciparum, at a concentration of 80 μM, K1 strain): 97%
- IC50 [2, 5]: 51 ± 7.28 µM
- CC50 at 48 h [3, 6]: > 80 µM

SMILES: O=c1c(O)c(-c2ccc(O)cc2)oc2cc(O)cc(O)c12 [Compound 7, kaempferol]
- IC50 [1, 4]: 62.5 ± 1.33 µM
- IC50 [2, 5]: > 80 µM
- CC50 at 48 h [3, 6]: > 80 µM

SMILES: NC(=O)NC1NC(=O)NC1=O (stereo not drawn) [Compound 8, allantoin]
- IC50 [1, 4]: > 80 µM
- IC50 [2, 5]: > 80 µM
- CC50 at 48 h [3, 6]: > 80 µM

SMILES: Oc1cc(O)cc(CCc2ccc(O)cc2O)c1 [Compound 9, 2,4,3′,5′-tetrahydroxybibenzyl]
- IC50 [1, 4]: 40 ± 2.5 µM
- IC50 [2, 5]: 58.9 ± 4.31 µM
- CC50 at 48 h [3]: 16.7 µM

SMILES: Oc1cc(O)c2c(c1)CCc1cc(O)c(O)cc1-2 [Compound 10, 2,4,6,7-tetrahydroxy-9,10-dihydrophenanthrene]
- IC50 [1, 4]: 58.3 ± 1.96 µM
- IC50 [2, 5]: > 80 µM
- CC50 at 48 h [3, 6]: > 80 µM

SMILES: O=c1c(O)c(-c2cc(O)c(O)c(O)c2)oc2cc(O)cc(O)c12 [Compound 11, myricetin]
- IC50 [1, 4]: > 80 µM
- IC50 [2, 5]: > 80 µM
- CC50 at 48 h [3, 6]: > 80 µM

SMILES: O=c1c(O[C@@H]2O[C@H](CO)[C@@H](O)[C@H](O)[C@H]2O)c(-c2ccc(O)c(O)c2)oc2cc(O)cc(O)c12 [Compound 13, quercetin-3-O-β-D-glucopyranoside]
- IC50 [1, 4]: > 80 µM
- IC50 [2, 5]: > 80 µM
- CC50 at 48 h [3, 6]: > 80 µM

SMILES: O=c1c(O[C@@H]2O[C@H](CO)[C@H](O)[C@H](O)[C@H]2O)c(-c2ccc(O)c(O)c2)oc2cc(O)cc(O)c12 [Compound 14, quercetin-3-O-β-D-galactopyranoside]
- IC50 [1, 4]: 48.9 µM
- IC50 ([1]; pure compounds, P. falciparum K1 strain, mean ± S.D. of three determinations, read-out: IC50 K1): 48.3 ± 1.21 µM
- IC50 [2, 5]: 68.9 ± 4.31 µM
- CC50 at 48 h [3, 6]: > 80 µM

SMILES: COc1cccc2c1C(=O)c1c(O)c3c(c(O)c1C2=O)C[C@@](O)(C(=O)CO)C[C@@H]3O[C@H]1C[C@H](N)[C@H](O)[C@H](C)O1 [Doxorubicin, reference compound]
- CC50 at 48 h [3, 6]: 1.96 ± 0.11 µM
